Experimental findings from patent publication US20040109845A1, “Method for inhibiting articular cartilage matrix calcification” (priority 2001, published 2004) are described below.

What all share (assay type): cell-based, human
Test [1] relates to tTGase and Factor XIIIa expression in knee articular cartilage and medial meniscus. In words: Immunohistochemistry of cartilage organ culture. The settings on record: organ culture 48 hours. Here is the method: Articular cartilage and medial menisci from normal donors were studied in cartilage organ culture in media supplemented with 1% FCS and 1% L-glutamine, as described in the Methods, following 48 hours of treatment with TGFβ 10 ng/ml, IL-1β (1 ng/ml), or medium alone.
Immunohistochemistry was performed as previously described in detail (30,33,34). In brief, immunohistochemical sections (5 microns) were pretreated with bovine testicular hyaluronidase (0.5 mg/ml at 37° C. for 30 min) and incubated in 5% normal goat or rabbit serum for 20 min prior to avidin/biotin peroxidase staining by the ABC method. Hematoxilin was used as the counterstain. Biotinylated anti-rabbit or anti-goat antibodies served as secondary antibodies. Levamisole was added to block endogenous alkaline phosphatase (AP). Negative controls were nonimmune rabbit or goat serum as a substitute for primary antibody.
Meniscal cells were taken from tissue slices removed from the central regions of the medial and lateral menisci. Where indicated, meniscal organ culture was performed by incubating these slices for b 48 hours in DMEM high glucose containing 1% FCS and 1% L-glutamine (and articular cartilage organ culture performed in the same manner, where indicated). Otherwise, we minced meniscal tissue with a scalpel, incubated in DMEM high glucose containing 2 mg/ml clostridial collagenase, 5% FCS, 1% L-glutamine, 100 units/ml Penicillin and 50 μg/ml Streptomycin (Omega Scientific, Tarzana, Calif.), and incubated on a gyratory shaker at 37° C. until the tissue fragments were digested. Residual multicellular aggregates were removed by sedimentation (1,000×g), and cells were washed three times in DMEM containing 5% FCS.

Test [2] has as its system meniscal cells and TC28 cells. Put plainly: Matrix calcification, quantitative Alizarin Red S binding assay. The conditions noted are these: polyHEME culture up to 10 days; cytokines 10 ng/ml or TGase transfection. As to the method: TC28 cells and meniscal cells were transfected with empty plasmid or a TGase expression construct, and then transferred to polyHEME and cultured for up to 10 days, as described above. For comparison purposes, control untransfected cells were treated with IL-1 or TGFβ(10 ng/ml each) for up to 10 days. To measure matrix calcification, media and cells were removed from the PolyHEME-coated dishes, and 1 ml Alizarin Red S solution (0.5% v/v Alizarin Red S, pH 5.0) added to washed plates at 23° C. for 10 min. After further washing, 100 mM Cetylpyridium Chloride was added for 10 min to release the remaining calcium-bound Alizarin Red S. The solution was collected and read at OD570, with 1.0 OD570=1 unit of Alizarin Red released per μg of DNA per culture dish. n=6 each, studied in triplicate, and using 6 different knee meniscal donors. *p<0.05.
To promote matrix calcification in short-term cultures, we modified a nonadherent chondrocyte culture system (37), and assessed cells that formed calcifying nodules over 10 days in culture. In brief, meniscal and TC28 cells, at 24 hours after the transfection, were washed and removed from the dish using 0.2 mg/ml EDTA, pH 8.0, then transferred to 6 well plates that had been previously coated with a 10% (wt./v) in 95% ethanol solution of Poly (2-Hydroxyethyl methacrylate) (polyHEME). […]
To assay calcification of the pericellular matrix of meniscal cells and TC28 cells, we used a quantitative Alizarin Red S binding assay (38). […] The solution was collected and read at OD570 on a SpectraMAX microplate reader (Molecular Devices, Sunnyvale, Calif.), with 1 OD570=1 unit of Alizarin Red released per μg of DNA per culture dish. We extracted matrix crystals from plates under each condition using a papain-hypochlorite method (39), and the crystals were embedded in Spurr epoxy resin, sectioned, and viewed on a Philips EM340 transmission electron micrograph and analyzed by electron diffraction (40,41).

The test system of test [3] is alkaline phosphatase (AP). Put plainly: AP activity of cultured meniscal cells. The conditions noted are these: 48 h, 10 ng/ml. As to the method:
Meniscal cells (from the same donors used in FIG. 3 above) were released from the matrix with collagenase digestion, and grown in monolayer culture for 72 hrs, then trypsinized and plated in 35 mm dishes (containing 3×10^5 cells) and allowed to adhere overnight. Cells were then treated for 48 h with 10 ng/ml of TGFβ or IL-1β (10 ng/ml) in 1% FCS-containing DMEM high glucose medium. The cells were collected and lysed for the TGase (FIG. 5A), NTPPPH (FIG. 5B), and AP (FIG. 5C) assays as described in the Methods. Five micrograms of soluble protein was studied in triplicate for each assay performed as previously described. Results were analyzed by linear regression, with results indicated.
PPi was determined by differential adsorption on activated charcoal of UDP-D-[6-^3H] glucose (Amersham, Chicago, Ill.) from the reaction product 6-phospho [6-^3H] gluconate (28). Units of NTPPPH and AP were designated as micromoles of substrate hydrolyzed per hour (per μg DNA in each sample) (28). NO release by cultured meniscal cells was measured using the Greiss reaction (33). Concentrations or specific activities of PPi, NTPPPH, and AP were equalized for cellular DNA concentrations in each well.

With “IL-1β: Human recombinant IL-1β purchased from R&D Systems”, in test [1] (knee articular cartilage and meniscal cartilage slices, TGFβ 10 ng/ml, IL-1β 1 ng/ml), the “tTGase and Factor XIIIa immunostaining” value is “induced increased tTGase and Factor XIIIa immunostaining”. Besides, in test [1] (knee articular cartilage), the “Factor XIIIa expression” value is “up-regulated” and the tTGase expression result is reported as “up-regulated tTGase expression”. Besides, the “Matrix calcification (bound Alizarin Red S)” value in test [2] is given as “significantly increased matrix calcification”. Also, in test [3], the AP activity entry is on record as “did not significantly change”.
